# According to PMC12052742, “Engineering a newly identified alcohol dehydrogenase from Sphingobium Sp. for efficient utilization of nicotinamide cofactors biomimetics” (Bioresources and Bioprocessing, 2025):
# How the values were obtained:
# [1] = test system: SpADH2 variant A290I; assay: Cofactor kinetic assay, A290I; type: biochemical, Sphingobium sp. SYK-6
# Experimental: (§1) Specific activity of SpADH2 in substrate spectrum study was measured spectrophotometrically. PBS (pH 7.5) buffer was pre-heated at 30°C for 15 min. For NAD^+, 0.05 µg SpADH2 was added to the PBS buffer (100 µL), and a final concentration of 2 mM NAD^+ was added. For tsNCBs cofactor p-BANA^+, 5 µg SpADH2 and a final concentration of 7.5 mM p-BANA^+ was added. The mixture was carried out in a 96-well microplate, and a final concentration of 5 mM substrate was added to start the reaction. The microplate was incubated in 30°C for 1 h. Florescent probes (2-[2-(1,4-dihydro-1-methyl-3-quinolinyl)ethenyl]-1,3,3-trimethyl-3H-indolium) in a final concentration of 0.2 mM (100 µL) was added (Scheme S1), and the microplate was placed in a microplate reader immediately for measurement under 537 nm (Fomin et al. [2016]).
# (§2) Kinetic analysis of SpADH2 and its variants were carried out following Michaelis-Menten equation or Michaelis-Menten excess substrate inhibition equation. For of the substrate kinetic assays, concentrations of cofactors were fixed at 5 mM for NAD^+ and 7.5 mM for p-BANA^+. For cofactor kinetic assays, the concentration of 1a was fixed at 5 mM.
# (§3) Specific activity was determined spectrophotometrically as above except that gradient 1a (0−20 mM) or cofactor (0−35 mM) concentrations were applied.
# (§4) Cofactor specificity ratio (CSR) represents the ratio of catalytic efficiency of p-BANA^+ to NAD^+ for each enzyme, and relative specificity (RS) stands for the CSR ratio of variants to WT (King et al. [2020]).
# [2] = target: T1, SpADH2 WT (Sphingobium sp. SYK-6, UniProt G2IIZ8); assay: Cofactor kinetic assay, WT; type: biochemical; conditions: cofactor (= label) varied, 1a fixed at 5 mM
# Experimental: as §1, §2, §3, §4
# [3] = test system: SpADH2 variant H43L/A290I; assay: Cofactor kinetic assay, H43L/A290I; type: biochemical, Sphingobium sp. SYK-6; conditions: cofactor (= label) varied, 1a fixed at 5 mM
# Experimental: as §1, §2, §3, §4
# [4] = test system: SpADH2 variant H43L/A290I; assay: Substrate kinetic assay, H43L/A290I; type: biochemical, Sphingobium sp. SYK-6
# Experimental: as §1, §2, §3, §4
# [5] = test system: SpADH2 variant A290I; assay: Substrate kinetic assay, A290I; type: biochemical, Sphingobium sp. SYK-6
# Experimental: as §1, §2, §3, §4
# [6] = test system: SpADH2 variants (H43L, A290I, H43L/A290I); assay: Cofactor spectrum (HPLC specific activity), all variants together; type: biochemical, Sphingobium sp. SYK-6; conditions: 1a 5 mM, cofactor 7.5 mM, pH 7.5, 30℃
# Experimental: (§5) Fig. 8 Cofactor spectrums of SpADH2 and its variants. The darkness of color for each cofactor stands for the activity. For each cofactor cube, top left: WT, top right: H43L, bottom left: A290I, bottom right: H43L/A290I. (a) Natural cofactors and NMN^+ are shown in purple. (b) tsNCBs are shown in cyan. The evaluation of cofactor spectrum was carried out under following conditions: 50 mM PBS buffer (pH 7.5) and 30℃, with 1a (5 mM) as substrate and different cofactors (7.5 mM) as cofactor. For NAD(P)^+ and NMN^+, 0.05 µg enzyme was added, and for tsNCBs, 5 µg enzyme was added. The results were analyzed by HPLC after 1 h reaction
# (§6) Specific activity of SpADH2 in cofactor spectrum study was determined by HPLC analysis. PBS (pH 7.5) buffer was pre-heated at 30°C for 15 min. For NAD(P)^+ and NMN^+, 0.05 µg SpADH2 was added to PBS buffer (100 µL). For tsNCBs, 5 µg SpADH2 was added. A final concentration of 7.5 mM cofactor was added to the reaction mixture. Finally, a final concentration of 5 mM substrate was added to start the reaction. The reactions were conducted at 30°C.
# (§7) One unit of enzyme activity is defined as the amount of enzyme required to form 1 µmol 1b per minute at pH 7.5 and 30°C. Same reaction without cofactor was used as a blank control.
# [7] = test system: SpADH2; assay: Cofactor spectrum of syringyl alcohol oxidation (HPLC specific activity), WT; type: biochemical, Sphingobium sp. SYK-6; conditions: 1a 5 mM, cofactor 7.5 mM, pH 7.5, 30℃; for decrease in activity compared with NAD^+ as cofactor: 0.05 µg SpADH2; for utilization of the tsNCB by SpADH2 (in words) / activity of SpADH2 with the tsNCB as cofactor: 5 µg SpADH2, 1 h
# Experimental: Fig. 2 Cofactor spectrum of syringyl alcohol oxidation catalyzed by SpADH2. The darkness of the background color for each cofactor stands for the activity of SpADH2 utilizing various cofactors. (a) NAD(P) ^+ and NMN^+ are shown in purple background. (b) tsNCBs are shown in cyan background. The evaluation of cofactor spectrum of SpADH2 was carried out under following conditions: 50 mM PBS buffer (pH 7.5) and 30℃, with 1a (5 mM) as substrate and different cofactors (7.5 mM) as cofactor. For NAD(P)^+ and NMN^+, 0.05 µg SpADH2 was added, and for tsNCBs, 5 µg SpADH2 was added. The results were analyzed by HPLC after 1 h reaction
# as §6, §7
# [8] = test system: SpADH2 variant H43L; assay: Substrate kinetic assay, H43L; type: biochemical, Sphingobium sp. SYK-6; conditions: 1a varied, cofactor (= label) fixed: 5 mM NAD^+ or 7.5 mM p-BANA^+
# Experimental: as §1, §2, §3, §4
# [9] = target: T1, SpADH2 WT; assay: Substrate kinetic assay, WT; type: biochemical; conditions: 1a varied, cofactor (= label) fixed: 5 mM NAD^+ or 7.5 mM p-BANA^+
# Experimental: as §1, §2, §3, §4
# [10] = test system: SpADH2 variant H43L; assay: Cofactor kinetic assay, H43L; type: biochemical, Sphingobium sp. SYK-6; conditions: cofactor (= label) varied, 1a fixed at 5 mM
# Experimental: as §1, §2, §3, §4
# [11] = test system: SpADH2 variant A290I; assay: Cofactor spectrum (HPLC specific activity), variant A290I; type: biochemical, Sphingobium sp. SYK-6; conditions: 1a 5 mM, cofactor 7.5 mM, pH 7.5, 30℃, 5 µg enzyme
# Experimental: as §5, §6, §7
# [12] = test system: SpADH2; assay: Preliminary evaluation of NCB usage in oxidation of syringyl alcohol (HPLC); type: biochemical, Sphingobium sp. SYK-6; conditions: preliminary assay: 1a 1 mM, NCB 10 mM, pH 7.0, 30℃, 1 h
# Experimental: Sphingobium sp. SYK-6 belongs to genus Sphingomonas, and a search in UniProtKB identified 19 ADHs from this strain, including 5 PQQ-dependent and the remaining NAD^+/NADP^+-dependent enzymes. Two sequences annotated as aryl-alcohol dehydrogenases (SLG_34580 and SLG_24930) (Table. S1) were selected for heterologous expression (Fig. S1) and named SpADH1 and SpADH2, respectively. Their ability to utilize NCBs was assessed by oxidation of syringyl alcohol (1a) to produce syringaldehyde (1b) (Fig. 1a).
# Fig. 1 (a) Reaction scheme of SpADH2-catalyzed oxidation of syringyl alcohol. (b) Specific activity of SpADH2 toward four NCBs. The evaluation of NCBs usage by SpADH2 was carried out under following conditions: 50 mM PBS buffer (pH 7.0) and 30℃, with 1a (1 mM) as substrate and 4 typical NCBs (10 mM) as cofactor. A total of 0.1 mg/mL enzyme was added to a 200 µL reaction mixture, and was analyzed by HPLC after 1 h reaction
# Reaction samples were analyzed using Agilent 1260 Infinity II LC system under reversed phase condition. Column: Agilent C18 column. Analytical conditions for 1a and 1b: mobile phase: 50% water: 50% acetonitrile. The retention time for standard product 1b was 3.27 min, under flow rate of 1 mL·min^− 1and temperature of 30°C (Fig. S4).
# [13] = test system: SpADH2; assay: Substrate spectrum (spectrophotometric specific activity, fluorescent probe); type: biochemical, Sphingobium sp. SYK-6; conditions: substrate 5 mM, 1 h; for specific activity of SpADH2 toward the substrate: cofactor NAD^+ 2 mM, 0.05 µg SpADH2, pH 7.5, 30℃; for substrate preference of SpADH2 (in words): cofactor p-BANA^+ 7.5 mM, 5 µg SpADH2, pH 7.5, 30℃
# Experimental: Fig. 3 Substrate spectrum of SpADH2 utilizing (a) NAD^+ and (b) p-BANA^+. The darkness of the background color for each substrate stands for the activity of SpADH2 with NAD^+ (purple) or p-BANA^+ (cyan) as cofactor. The evaluation of substrate spectrum of SpADH2 was carried out under following conditions: 50 mM PBS buffer (pH 7.5) and 30℃, with 1a (5 mM) as substrate. For NAD^+(2 mM), 0.05 µg SpADH2 was added, and for p-BANA^+(7.5 mM), 5 µg SpADH2 was added. After 1 h, reactions were visualized by 0.2 mM florescent probes (2-[2-(1,4-dihydro-1-methyl-3-quinolinyl)ethenyl]-1,3,3-trimethyl-3H-indolium)
# as §1
# One unit of enzyme activity is defined as the amount of enzyme required to form 1 µmol of reduced florescent probes per minute at pH 7.5 and 30°C. Each reaction was repeated in triplet. Same reaction without substrate was used as a blank control. The molar absorbance coefficient (ε) was detected as […] with NADH as the reduced cofactor and 60,801 µM^− 1·cm^− 1 with p-BANAH as the reduced cofactor.
# [14] = test system: NC(=O)c1ccc[n+]([C@@H]2O[C@H](COP(=O)([O-])OP(=O)(O)OC[C@H]3O[C@@H](n4cnc5c(N)ncnc54)[C@H](O)[C@@H]3O)[C@@H](O)[C@H]2O)c1; assay: Cofactor kinetic assay, WT; type: biochemical, Sphingobium sp. SYK-6; conditions: other: WT, cofactor (= label) varied, 1a fixed at 5 mM, pH 7.5, 30°C
# Experimental: as §1, §2, §3, §4
# [15] = 1a varied, cofactor (= label) fixed: 5 mM NAD^+ or 7.5 mM p-BANA^+
# [16] = substrate kinetics, cofactor = label
# T1 sequence (G2IIZ8 1-372): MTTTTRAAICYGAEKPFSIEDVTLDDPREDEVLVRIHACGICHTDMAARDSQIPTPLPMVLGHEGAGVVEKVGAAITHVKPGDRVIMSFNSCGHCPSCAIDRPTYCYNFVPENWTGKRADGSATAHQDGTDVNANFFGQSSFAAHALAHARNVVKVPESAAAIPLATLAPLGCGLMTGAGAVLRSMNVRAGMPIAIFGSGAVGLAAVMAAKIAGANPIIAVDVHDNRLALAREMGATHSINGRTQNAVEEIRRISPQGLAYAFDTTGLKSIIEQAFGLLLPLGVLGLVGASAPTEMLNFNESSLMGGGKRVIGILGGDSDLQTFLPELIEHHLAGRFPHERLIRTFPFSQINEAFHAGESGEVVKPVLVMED
molecule,measurement,setting,value
"NC(=O)c1ccc[n+]([C@@H]2O[C@H](COP(=O)([O-])OP(=O)(O)OC[C@H]3O[C@@H](n4cnc5c(N)ncnc54)[C@H](O)[C@@H]3O)[C@@H](O)[C@H]2O)c1 [NAD^+, reference compound]",kcat,"[1]; cofactor (= label) varied, 1a fixed at 5 mM",28.3 ± 0.6 min^− 1
same,Km,"[1]; cofactor (= label) varied, 1a fixed at 5 mM, pH 7.5, 30°C",9 ± 1 µM
same,fold higher catalytic efficiency (kcat/Km) than WT,"[1]; cofactor kinetics, cofactor = label",1.5 fold
same,kcat,[2],58.7 ± 1.5 min^− 1
same,kcat,[3],12.6 ± 0.2 min^− 1
same,Km,"[3]; pH 7.5, 30°C",365 ± 25 µM
same,kcat,[4]; [15],18.9 ± 0.2 min^− 1
same,fold improvement in substrate inhibition (Ki) vs WT,[4]; [16],up to 9 fold
same,kcat,[5]; [15],41.4 ± 1.4 min^− 1
same,substrate inhibition (in words),[5]; [16],no substrate inhibition was observed
same,catalytic activity of all variants with the cofactor (in words),[6],relatively lower catalytic activity
same,specific activity of SpADH2 with the cofactor,"[7]; 0.05 µg SpADH2, 1 h",4.40 U/mg
same,kcat,[8],102 ± 2.3 min^− 1
same,kcat,[9],134 ± 2.9 min^− 1
same,kcat,[10],57.8 ± 1.2 min^− 1
same,Km,"[10]; pH 7.5, 30°C",99 ± 8 µM
"NC(=O)c1ccc[n+]([C@@H]2O[C@H](COP(=O)(O)OP(=O)([O-])OC[C@H]3O[C@@H](n4cnc5c(N)ncnc54)[C@H](OP(=O)(O)O)[C@@H]3O)[C@@H](O)[C@H]2O)c1 [NADP^+, reference compound]",catalytic activity of all variants with the cofactor (in words),[6],relatively lower catalytic activity
same,decrease in activity compared with NAD^+ as cofactor,[7],roughly 50%
"Cc1ccccc1C[n+]1cccc(C(N)=O)c1 [o-BMNA^+, ortho-3-carbamoyl-1-(2-methylbenzyl)pyridin-1-ium]",utilization of the tsNCB by SpADH2 (in words),[7],No detectable activity
"NC(=O)c1ccc[n+](Cc2cccc(C(=O)O)c2)c1 [m-BANA^+, meta-3-carbamoyl-1-(3-carboxybenzyl)pyridin-1-ium]",catalytic activity of all variants with the cofactor (in words),[6],highest activity
same,catalytic activity with the tsNCB as cofactor,[11]; 1 h,118.11 U/g
"NC(=O)c1ccc[n+](Cc2ccccc2)c1 [BNA^+, 1-benzyl-3-carbamoylpyridin-1-ium]",utilization of the NCB by SpADH2 (in words),[12],Appreciable activity
NC(=O)c1ccc[n+](Cc2ccccc2Br)c1 [o-BBrNA^+],activity of SpADH2 with the tsNCB as cofactor,[7],1.3 U/g
"NC(=O)c1ccc[n+](Cc2cccc([N+](=O)[O-])c2)c1 [m-BNNA^+, meta-3-carbamoyl-1-(3-nitrobenzyl)pyridin-1-ium]",utilization of the tsNCB by SpADH2 (in words),[7],not effectively utilized
same,utilization of the tsNCB (in words),[11],capable of utilizing
OCc1ccccc1 [benzyl alcohol],specific activity of SpADH2 toward the substrate,[13],4.71 U/mg
same,substrate preference of SpADH2 (in words),[13],No significant preference
NC(=O)c1ccc[n+](Cc2ccc([N+](=O)[O-])cc2)c1 [p-BNNA^+],activity of SpADH2 with the tsNCB as cofactor,[7],2.25 U/g
same,utilization of the tsNCB (in words),[11],capable of utilizing
COc1cc(CO)cc(OC)c1O [syringyl alcohol],substrate preference of SpADH2 (in words),[13],optimal substrate
OCc1ccsc1 [3-thiophenemethanol],specific activity of SpADH2 toward the substrate,[13],4.78 U/mg
same,substrate preference of SpADH2 (in words),[13],No significant preference
"Cc1ccc(C[n+]2cccc(C(N)=O)c2)cc1 [p-BMNA^+, para-3-carbamoyl-1-(4-methylbenzyl)pyridin-1-ium]",utilization of the tsNCB by SpADH2 (in words),[7],No detectable activity
NC(=O)c1ccc[n+](Cc2ccccc2[N+](=O)[O-])c1 [o-BNNA^+],activity of SpADH2 with the tsNCB as cofactor,[7],1.92 U/g
same,utilization of the tsNCB (in words),[11],capable of utilizing
"NC(=O)c1ccc[n+]([C@@H]2O[C@H](COP(=O)([O-])O)[C@@H](O)[C@H]2O)c1 [NMN^+, nicotinamide mononucleotide, reference compound]",catalytic activity of all variants with the cofactor (in words),[6],relatively lower catalytic activity
same,decrease in activity compared with NAD^+ as cofactor,[7],roughly 50%
SpADH2 WT (Sphingobium sp. SYK-6),Km,[14],28 ± 3 µM
